Data set [1] deals with A2780. In words: Anti-proliferative effect (CellTiter-Glo, 72 h), A2780. The class given is cell-based. The note with it: A2780 cells, median, read-out: IC50 antiproliferation assay A2780 [M] (median). In a few lines:
(§1)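 Cells plated and incubated with compounds for 72 h at 37 °C, with a parallel day 0 reference plate for time-zero signal. Viability read by CellTiter-Glo luminescence after 10 min, measured identically on the day 0 and 72 h plates.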
(In ATP-based viability assays light output follows the ATP content of the culture.)

Data set [2] has as its system SUDHL5. Nature of the data set: Induction of caspase-3/7 activity (Caspase-Glo 3/7), SUDHL5. In kind it is cell-based. The note with it: caspase-3/7 induction, SUDHL5 cells, 3 h treatment, median. In a few lines: (§2)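 DLBCL lines SUDHL5 and SUDHL10 treated with compounds for 3 h at 37 °C; caspase-3/7 activity read by Caspase-Glo 3/7 luminescence. Medium-only background subtracted; EC50 fitted with bottom fixed at 1 and top fixed at the reference compound's maximal induction.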

The subject of data set [3] is OPM2. In words: Anti-proliferative effect (CellTiter-Glo, 72 h), OPM2. In kind it is cell-based. The note with it: OPM2 cells, median, read-out: IC50 antiproliferation assay OPM2 [M] (median). As to the method:
Assessment of the Anti-Proliferative Effect of Compounds in Different Cell Lines
The impact of compounds on the proliferation of different cell lines was assessed using the CellTiter-Glo® Luminescent Cell Viability reagent from Promega (G7573). Of note, SUDHL10 and SUDHL5 (DLBCL), NCI-H929 (Multiple Myeloma), A2780 (ovarian carcinoma) as well as MV-4-11(AML) cells are sensitive to MCL-1 inhibition.
In parallel, cells were plated in a reference (day 0) plate for time zero determination.
Rim wells were excluded. The cells were incubated for 72 h hours in a humidified incubator at 37° C. The day 0 plate was measured by adding 30 μl/well of CTG solution (CellTiter-Glo® Luminescent Cell Viability reagent, Promega G7573) to time zero wells in the reference plate followed by a 10 minutes incubation and luminescence reading at 0.1 ms, using the PHERAstar FS microplate reader (BMG Labtech).
After 72 h incubation, the treated plates were measured in the same way as the day 0 plate mentioned above.

The target in data set [4] is MCL-1 (Homo sapiens, UniProt Q07820). In words: Protein-protein interaction assay MCL-1/Noxa BH3 peptide (MCL-1 assay), TR-FRET. The class given is binding. The note with it: MBP-MCL-1 / Noxa BH3-derived peptide, median. In a few lines:
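IC50 came from a 4-parameter fit of the normalized 665/620 nm TR-FRET ratio (anti-MBP Eu-cryptate/streptavidin-XL665). Compounds (0.1 nM–20 μM, duplicates) were preincubated 10 min at 22 °C with 1 nM MBP-MCL-1 in pH 7 Tris/NaCl/KF buffer, then read after 1 h at 22 °C plus overnight at 4 °C.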
(Time-resolved FRET reads energy transfer from a long-lived donor to a nearby acceptor.)

Data set [5] relates to SUDHL10. In words: Induction of caspase-3/7 activity (Caspase-Glo 3/7), SUDHL10. In kind it is cell-based. The note with it: caspase-3/7 induction, SUDHL10 cells, 3 h treatment, median. In a few lines:
as §2

In data set [6] the test system is SUDHL10. Nature of the data set: Induction of cytotoxicity (CellTiter-Glo, 5 h), SUDHL10.
Data set [7] has as its system SUDHL5. In words: Induction of cytotoxicity (CellTiter-Glo, 5 h), SUDHL5.
Data set [8] deals with SUDHL10. Nature of the data set: Anti-proliferative effect (CellTiter-Glo, 72 h), SUDHL10. The class given is cell-based. The following applies: SUDHL10 cells, antiproliferation, 72 h, median, read-out: Antiproli SUDHL10 [M] (median). In a few lines:
as §1

Data set [9] relates to SUDHL5. Nature of the data set: Anti-proliferative effect (CellTiter-Glo, 72 h), SUDHL5. In kind it is cell-based. The following applies: SUDHL5 cells, antiproliferation, 72 h, median, read-out: Antiproli SUDHL5 [M] (median). In a few lines:
as §1

The mark [10] stands for this setting: read-out: Cytotox SUDHL10 [M] (median), SUDHL10 cells, cytotoxicity induction, CellTiter-Glo, 5 h incubation, median.
Setting [11] is: read-out: Cytotox SUDHL5 [M] (median), SUDHL5 cells, cytotoxicity induction, CellTiter-Glo, 5 h incubation, median.
[12] abbreviates: read-out: Cytotox SUDHL10 [M] (median), SUDHL10 cells, cytotoxicity induction, CellTiter-Glo, 5 h, median.
The mark [13] stands for this setting: read-out: Cytotox SUDHL5 [M] (median), SUDHL5 cells, cytotoxicity induction, CellTiter-Glo, 5 h, median.

Structures can show the parent of a compound that is named as a salt. Where two headings read alike, the source gives them in different places. Bounds are passed on as bounds.

The text below walks through data of patent publication US10981932B2, “Macrocyclic indole derivatives” (Bayer Aktiengesellschaft, priority 2016, dated 2021).

Sequence of MCL-1 (Q07820 whole entry): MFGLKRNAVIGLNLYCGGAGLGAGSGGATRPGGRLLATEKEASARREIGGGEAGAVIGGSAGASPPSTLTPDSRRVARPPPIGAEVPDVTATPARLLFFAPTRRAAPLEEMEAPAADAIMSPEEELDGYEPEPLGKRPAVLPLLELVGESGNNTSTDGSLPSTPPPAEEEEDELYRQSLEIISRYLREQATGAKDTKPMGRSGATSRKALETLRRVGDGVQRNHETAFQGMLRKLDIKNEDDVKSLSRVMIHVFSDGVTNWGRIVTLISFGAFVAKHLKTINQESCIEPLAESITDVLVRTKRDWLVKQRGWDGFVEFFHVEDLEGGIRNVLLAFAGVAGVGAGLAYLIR

As for `CC(C)OCc1nn(C)c2c1-c1cccc3c(CCCOc4cccc5ccccc45)c(C(=O)O)n(c13)C/C=C\COC2` (racemic) [Example 1-68, (rac)-(11Z)-1-methyl-7-[3-(naphthalen-1-yloxy)propyl]-3-[(propan-2-yloxy)methyl]-1,10,13,15-tetrahydropyrazolo[4′,3′:9,10][1,6]oxazacycloundecino[8,7,6-hi]indole-8-carboxylic Acid], the IC50 is 2.87e-05 M in data set [1] (Homo sapiens, A2780, 72 h); more than 3.3e-05 M in data set [3] (Homo sapiens, OPM-2, 72 h); 0.0269 µM in [4]. For the same molecule, the EC50 in data set [2] (Homo sapiens, SU-DHL-5, 3 h) is more than 33 µM; in data set [5] (Homo sapiens, SU-DHL10, 3 h) it was more than 33 µM.
Turning to `COCC(=O)N1CCN(c2ccc(OCc3nn(C)c4c3-c3cccc5c(CCCOc6cccc7ccccc67)c(C(=O)O)n(c35)CCCCOC4)cc2)CC1` (single isomer, unassigned; enantiomer 1) [Example 1-28, 3-({4-[4-(methoxyacetyl)piperazin-1-yl]phenoxy}methyl)-1-methyl-7-[3-(naphthalen-1-yloxy)propyl]-1,10,11,12,13,15-hexahydropyrazolo[4′,3′:9,10][1,6]oxazacycloundecino[8,7,6-hi]indole-8-carboxylic Acid (Enantiomer 1)], the IC50 was 3.12e-05 M in data set [1] (Homo sapiens, A2780, 72 h); more than 3.3e-05 M in data set [6] (setting [10]); 1.98e-05 M in data set [3]; 0.0709 µM in [4]; more than 3.3e-05 M in data set [7] (setting [11]). For the same molecule, the EC50 in [2] and in [5] was more than 33 µM throughout.
With `CC(=O)N1CCN(c2ccc(OCc3nn(C)c4c3-c3cccc5c(CCCOc6cccc7ccccc67)c(C(=O)O)n(c35)CCCCOC4)cc2)CC1` (single isomer, unassigned; enantiomer 2) [Example 1-26, 3-{[4-(4-acetylpiperazin-1-yl)phenoxy]methyl}-1-methyl-7-[3-(naphthalen-1-yloxy)propyl]-1,10,11,12,13,15-hexahydropyrazolo[4′,3′:9,10][1,6]oxazacycloundecino[8,7,6-hi]indole-8-carboxylic Acid (Enantiomer 2)], the IC50 in [1] is 2.48e-05 M; in data set [6] (setting [10]), more than 3.3e-05 M; in data set [3], 2e-06 M; in data set [4], 0.00163 µM; in [7] (setting [11]), more than 3.3e-05 M. The EC50 in data set [2] and in data set [5] was more than 33 µM each time.
In the case of `Cn1nc(COc2ccc(NS(C)(=O)=O)cc2)c2c1COCCCCn1c(C(=O)O)c(CCCOc3cccc4ccccc34)c3cccc-2c31` (single isomer, unassigned; enantiomer 2) [Example 323, 1-methyl-3-({4-[(methylsulfonyl)amino]phenoxy}methyl)-7-[3-(naphthalen-1-yloxy)propyl]-1,10,11,12,13,15-hexahydropyrazolo[4′,3′:9,10][1,6]oxazacycloundecino[8,7,6-hi]indole-8-carboxylic acid-N-ethylethanamine Salt (Enantiomer 2)], the IC50 was 2.18e-05 M in data set [1]; more than 3.3e-05 M in [6] (setting [12]); 0.32 µM in [4]; 1.36e-05 M in data set [8]; 1.32e-05 M in [9]; more than 3.3e-05 M in [7] (setting [13]). The EC50 in data set [2] and in data set [5] was more than 33 µM throughout.
Turning to `Cn1nc(CN2CCCCC2=O)c2c1COCCCCn1c(C(=O)O)c(CCCOc3cccc4ccccc34)c3cccc-2c31` (single isomer, unassigned; enantiomer 2) [Example 327, 1-methyl-7-[3-(naphthalen-1-yloxy)propyl]-3-[(2-oxopiperidin-1-yl)methyl]-1,10,11,12,13,15-hexahydropyrazolo[4′,3′:9,10][1,6]oxazacycloundecino[8,7,6-hi]indole-8-carboxylic Acid (Enantiomer 2)], the IC50 in [1] is 3.12e-05 M; in [6] (setting [12]) it was more than 3.3e-05 M; in data set [4] it was 0.103 µM; in data set [8], 1.3e-05 M; in data set [9] it was 2.48e-05 M; in data set [7] (setting [13]), more than 3.3e-05 M. The EC50 in data set [2] and in [5] was more than 33 µM in each case.
Regarding `Cn1nc(CN2CCCC2=O)c2c1COCCCCn1c(C(=O)O)c(CCCOc3cccc4ccccc34)c3cccc-2c31` (single isomer, unassigned; enantiomer 2) [Example 329, 1-methyl-7-[3-(naphthalen-1-yloxy)propyl]-3-[(2-oxopyrrolidin-1-yl)methyl]-1,10,11,12,13,15-hexahydropyrazolo[4′,3′:9,10][1,6]oxazacycloundecino[8,7,6-hi]indole-8-carboxylic Acid (Enantiomer 2)], the IC50 in data set [1] (Homo sapiens, A2780, 72 h) was more than 3.3e-05 M; in data set [6] (Homo sapiens, SU-DHL10, 5 h, read-out: Cytotox SUDHL10 [M] (median), SUDHL10 cells, cytotoxicity induction, CellTiter-Glo, 5 h, median), more than 3.3e-05 M; in [4], 3 µM; in data set [8] (Homo sapiens, SU-DHL10, 72 h), more than 3.3e-05 M; in [9] (Homo sapiens, SU-DHL-5, 72 h), more than 3.3e-05 M; in [7] (Homo sapiens, SU-DHL-5, 5 h, read-out: Cytotox SUDHL5 [M] (median), SUDHL5 cells, cytotoxicity induction, CellTiter-Glo, 5 h, median), more than 3.3e-05 M. For the same molecule, the EC50 in data set [2] (Homo sapiens, SU-DHL-5, 3 h) was more than 33 µM; in [5] (Homo sapiens, SU-DHL10, 3 h) it was more than 33 µM.
As for `Cn1nc(CN2CCCC2)c2c1COCCCCn1c(C(=O)O)c(CCCOc3cccc4ccccc34)c3cccc-2c31` (single isomer, unassigned; enantiomer 2) [Example 337, 1-methyl-7-[3-(naphthalen-1-yloxy)propyl]-3-(pyrrolidin-1-ylmethyl)-1,10,11,12,13,15-hexahydropyrazolo[4′3′:9,10][1,6]oxazacycloundecino[8,7,6-hi]indole-carboxylic Acid (Enantiomer 2)], the IC50 in [1] is more than 3.3e-05 M; in data set [6] (setting [12]), more than 3.3e-05 M; in data set [4] it was 0.977 µM; in data set [8] it was more than 3.3e-05 M; in [9], 1.97e-05 M; in [7] (setting [13]) it was more than 3.3e-05 M. The EC50 in data set [2] and in [5] was more than 33 µM in each case.
For the molecule `CC(=O)NCc1nn(C)c2c1-c1cccc3c(CCCOc4cccc5ccccc45)c(C(=O)O)n(c13)CCCCOC2` (single isomer, unassigned; enantiomer 2) [Example 341, 3-[(acetylamino)methyl]-1-methyl-7-[3-(naphthalen-1-yloxy)propyl]-1,10,11,12,13,15-hexahydropyrazolo[4′3′:9,10][1,6]oxazacycloundecino[8,7,6-hi]indole-cararboxylic Acid (Enantiomer 2)], the IC50 in data set [1] was more than 3.3e-05 M; in data set [6] (setting [12]) it was more than 3.3e-05 M; in data set [4], 0.651 µM; in data set [8], more than 3.3e-05 M; in data set [9], 6.48e-06 M; in data set [7] (setting [13]) it was 2.64e-05 M. Also, the half-maximal effective concentration (EC50) in data set [2] and in [5] was more than 33 µM throughout.

A word on the EC50: it is the concentration at which the effect is half-maximal. A low value points to an effect from little substance.
